Assay results from publication PMC12860872, “Preclinical evaluation of DOTAGA.Glu.(FAPI)2 and DO3A.Glu.(FAPI)2 as theranostics with human dosimetry extrapolation to lutetium-177 and terbium-161 analogs” (European Journal of Nuclear Medicine and Molecular Imaging, 2025).
Where “and” joins values, the source holds several entries; their conditions need not be identical. Equal values may be shown once.

How the values were obtained:
[1] = Blood clearance kinetics in healthy mice; assay type: in vivo, mouse; details: i.v., Two-Phase Decay Model
Experimental: Blood samples were collected from the facial vein at 1, 3, 5, 7, 10, 15, 20, 30, 45, 60, 240, and 1440 min p.i., weighed, and measured for radioactivity using a γ-counter. Results were expressed as % I.A./g of blood and plotted over time. The initial and terminal half-lives were determined using Two-Phase Decay Model. The biological half-lives of selected organs were calculated from the biodistribution data using One-Phase Decay Model (GraphPad Prism 8).

[2] = Extrapolated human dosimetry (OLINDA/EXM, ICRP-89 phantoms); set-up: TIAC average pancreas: unit not given beside the values; TIAC average stomach / TIAC average Small Intestine / TIAC average Left Column / TIAC average Rectum / TIAC average adrenal / TIAC average bone / TIAC average Red marrow / TIAC average salivary glands / TIAC average ROB / TIAC average Total Frac IA / TIAC average heart content / TIAC average heart wall / TIAC average liver / TIAC average spleen / TIAC average lung / TIAC average kidney: unit not given here
Experimental: To address inter-animal variability, the TIACs for each source organ were calculated from both the mean nTACs and the nTACs obtainend from fitting the mean ± 1 standard deviation (SD) of the normalized time-activity data, providing upper and lower bounds.
The mice-to-human TIAC extrapolation accounted for species-specific differences in relative source organ masses, m(organ), as compared to the total body weight (WB), for the mice (m) and human (h) models respectively.
The human organ masses, m(organ)h, were obtained from ICRP-89 adult male and female reference phantoms, while the murine organ masses, m(organ)m, were derived from the standard MOBY mouse model. The extrapolated human TIACs, TIACh were entered in the OLINDA/EXM software to compute the absorbed doses to target organs and the effective dose for adult male, female, and gender-averaged human models. […]
The TIACs, for [177Lu]Lu-DOTAGA.Glu.(FAPI)2 and [177Lu]Lu-DO3A.Glu.(FAPI)2, were determined by time integration of the nTACs. To account for the inter-animal variability, the TIACs for each source organ were calculated using both the mean nTACs and the nTACs obtainend from fitting the mean ±1 standard deviation (SD) of the normalized time-activity data. This approach provided the upper and the lower bounds for the estimated TIACs.
The mice-to-human TIAC extrapolation was obtained considering the different (species-specific) relative source organ masses, m(organ), as compared to the total body weight (WB), for the mice (m) and human (h) models respectively.
The human organ masses, m(organ)h, were obtained from the adult male and female reference models phantoms defined in ICRP-89, while the murine organ masses, m(organ)m, were derived from the standard MOBY mouse model. The extrapolated human TIACs values, TIACh, for each source organ were input into the kinetic module of the OLINDA/EXM software (version 2.1, HERMES Medical Solutions AB, Stockholm, Sweden) to compute the absorbed doses to target organs and the effective dose for adult male, female, and gender-averaged human models. […]

[3] = ICRP 89 Adult Female, extrapolated
[4] = ICRP 89 Adult Male, extrapolated
[5] = human extrapolation, male-female range

SMILES: N#C[C@@H]1CC(F)(F)CN1C(=O)CNC(=O)c1ccnc2ccc(OCCCCNC(=O)CC[C@H](NC(=O)CN3CCN(CC(=O)[O-])CCN(CC(=O)[O-])CCN(CC(=O)[O-])CC3)C(=O)NCCCCOc3ccc4nccc(C(=O)NCC(=O)N5CC(F)(F)C[C@H]5C#N)c4c3)cc12.[177Lu+3] [[^177Lu]Lu-DO3A.Glu.(FAPI)2]
- Blood half life (initial) [1]: 1.3 min
- Blood half life (terminal) [1]: 4.172 h and 4.17 h
- Absorbed dose (AD average) Adrenals [2, 3]: 9.96E-03 mGy/Mbq
- Absorbed dose (AD average) Brain [2, 3]: 2.63E-02 mGy/Mbq
- Absorbed dose (AD average) Breasts [2, 3]: 2.57E-02 mGy/Mbq
- Absorbed dose (AD average) Esophagus [2, 3]: 2.66E-02 mGy/Mbq
- Absorbed dose (AD average) Eyes [2, 3]: 2.63E-02 mGy/Mbq
- Absorbed dose (AD average) Gallbladder Wall [2, 3]: 2.80E-02 mGy/Mbq
- Absorbed dose (AD average) Heart Wall [2, 3]: 2.49E-02 mGy/Mbq
- Absorbed dose (AD average) Kidneys [2, 3]: 2.54E-02 ± 0.001 mGy/Mbq and 2.54E-02 mGy/Mbq
- Absorbed dose (AD average) Left colon [2, 3]: 6.93E-02 mGy/Mbq
- Absorbed dose (AD average) Liver [2, 3]: 7.30E-02 ± 0.003 mGy/Mbq and 7.30E-02 mGy/Mbq
- Absorbed dose (AD average) Lungs [2, 3]: 4.16E-02 ± 0.01 mGy/Mbq and 4.16E-02 mGy/Mbq
- Absorbed dose (AD average) Osteogenic Cells [2, 3]: 6.24E-02 ± 0.002 mGy/Mbq and 6.24E-02 mGy/Mbq
- Absorbed dose (AD average) Ovaries [2, 3]: 2.76E-02 mGy/Mbq
- Absorbed dose (AD average) Pancreas [2, 3]: 2.62E-02 ± 0.001 mGy/Mbq and 2.62E-02 mGy/Mbq
- Absorbed dose (AD average) Rectum [2, 3]: 7.09E-02 mGy/Mbq
- Absorbed dose (AD average) Red Marrow [2, 3]: 3.06E-02 ± 0.001 mGy/Mbq and 3.06E-02 mGy/Mbq
- Absorbed dose (AD average) Right colon [2, 3]: 4.88E-02 mGy/Mbq
- Absorbed dose (AD average) Salivary Glands [2, 3]: 8.81E-02 ± 0.01 mGy/Mbq and 8.81E-02 mGy/Mbq
- Absorbed dose (AD average) Small Intestine [2, 3]: 4.29E-02 ± 0.003 mGy/Mbq and 4.29E-02 mGy/Mbq
- Absorbed dose (AD average) Spleen [2, 3]: 6.42E-02 ± 0.003 mGy/Mbq and 6.42E-02 mGy/Mbq
- Absorbed dose (AD average) Stomach Wall [2, 3]: 3.65E-02 mGy/Mbq
- Absorbed dose (AD average) Thymus [2, 3]: 2.70E-02 mGy/Mbq
- Absorbed dose (AD average) Thyroid [2, 3]: 2.64E-02 mGy/Mbq
- Absorbed dose (AD average) Total Body [2, 3]: 3.44E-02 ± 0.002 mGy/Mbq and 3.44E-02 mGy/Mbq
- Absorbed dose (AD average) Urinary Bladder Wall [2, 3]: 2.73E-02 mGy/Mbq
- Absorbed dose (AD average) Uterus [2, 3]: 2.76E-02 mGy/Mbq
- Effective dose (average) [2, 3]: 3.49E-02
- Absorbed dose (AD average) Adrenals [2, 4]: 7.77E-03 mGy/Mbq
- Absorbed dose (AD average) Brain [2, 4]: 2.00E-02 mGy/Mbq
- Absorbed dose (AD average) Esophagus [2, 4]: 2.06E-02 mGy/Mbq
- Absorbed dose (AD average) Eyes [2, 4]: 2.00E-02 mGy/Mbq
- Absorbed dose (AD average) Gallbladder Wall [2, 4]: 2.20E-02 mGy/Mbq
- Absorbed dose (AD average) Heart Wall [2, 4]: 2.04E-02 mGy/Mbq
- Absorbed dose (AD average) Kidneys [2, 4]: 2.09E-02 ± 0.001 mGy/Mbq and 2.09E-02 mGy/Mbq
- Absorbed dose (AD average) Left colon [2, 4]: 5.77E-02 mGy/Mbq
- Absorbed dose (AD average) Liver [2, 4]: 6.00E-02 ± 0.002 mGy/Mbq and 6.00E-02 mGy/Mbq
- Absorbed dose (AD average) Lungs [2, 4]: 3.40E-02 ± 0.01 mGy/Mbq and 3.40E-02 mGy/Mbq
- Absorbed dose (AD average) Osteogenic Cells [2, 4]: 6.64E-02 ± 0.002 mGy/Mbq and 6.64E-02 mGy/Mbq
- Absorbed dose (AD average) Pancreas [2, 4]: 2.12E-02 ± 0.001 mGy/Mbq and 2.12E-02 mGy/Mbq
- Absorbed dose (AD average) Prostate [2, 4]: 2.07E-02 mGy/Mbq
- Absorbed dose (AD average) Rectum [2, 4]: 5.76E-02 mGy/Mbq
- Absorbed dose (AD average) Red Marrow [2, 4]: 2.43E-02 ± 0.001 mGy/Mbq and 2.43E-02 mGy/Mbq
- Absorbed dose (AD average) Right colon [2, 4]: 3.94E-02 mGy/Mbq
- Absorbed dose (AD average) Salivary Glands [2, 4]: 7.27E-02 ± 0.01 mGy/Mbq and 7.27E-02 mGy/Mbq
- Absorbed dose (AD average) Small Intestine [2, 4]: 3.27E-02 ± 0.002 mGy/Mbq and 3.27E-02 mGy/Mbq
- Absorbed dose (AD average) Spleen [2, 4]: 5.27E-02 ± 0.002 mGy/Mbq and 5.27E-02 mGy/Mbq
- Absorbed dose (AD average) Stomach Wall [2, 4]: 2.83E-02 mGy/Mbq
- Absorbed dose (AD average) Testes [2, 4]: 2.00E-02 mGy/Mbq
- Absorbed dose (AD average) Thymus [2, 4]: 2.03E-02 mGy/Mbq
- Absorbed dose (AD average) Thyroid [2, 4]: 2.04E-02 mGy/Mbq
- Absorbed dose (AD average) Total Body [2, 4]: 2.71E-02 ± 0.001 mGy/Mbq and 2.71E-02 mGy/Mbq
- Absorbed dose (AD average) Urinary Bladder Wall [2, 4]: 2.07E-02 mGy/Mbq
- Effective dose (average) ([2]; ICRP 89 Adult Male, extrapolated, in mSv/MBq (unit assumed)): 2.56E-02
- absorbed dose kidneys [2, 5]: 0.02–0.03 Gy/GBq
- absorbed dose liver [2, 5]: 0.06–0.07 Gy/GBq
- absorbed dose salivary glands [2, 5]: 0.07–0.09 Gy/GBq
- total body and effective doses [2, 5]: 0.027–0.034 Gy/GBq
- TIAC average Left Column ([2]; human female, extrapolated): 0.0781
- TIAC average ROB ([2]; human female, extrapolated): 16.8035
- TIAC average Rectum ([2]; human female, extrapolated): 0.0808
- TIAC average Red marrow ([2]; human female, extrapolated): 0.2208
- TIAC average Small Intestine ([2]; human female, extrapolated): 0.1025
- TIAC average Total Frac IA ([2]; human female, extrapolated): 21.2881
- TIAC average adrenal ([2]; human female, extrapolated): 0.0008
- TIAC average bone ([2]; human female, extrapolated): 2.8185
- TIAC average heart content ([2]; human female, extrapolated): 0.0908
- TIAC average heart wall ([2]; human female, extrapolated): 0.0329
- TIAC average kidney ([2]; human female, extrapolated): 0.0717
- TIAC average liver ([2]; human female, extrapolated): 1.1228
- TIAC average lung ([2]; human female, extrapolated): 0.4313
- TIAC average pancreas ([2]; human female, extrapolated): 0.0313
- TIAC average salivary glands ([2]; human female, extrapolated): 0.0707
- TIAC average spleen ([2]; human female, extrapolated): 0.0929
- TIAC average stomach ([2]; human female, extrapolated): 0.0501
- TIAC average Left Column ([2]; human male, extrapolated): 0.0642
- TIAC average ROB ([2]; human male, extrapolated): 15.5056
- TIAC average Rectum ([2]; human male, extrapolated): 0.0642
- TIAC average Red marrow ([2]; human male, extrapolated): 0.2359
- TIAC average Small Intestine ([2]; human male, extrapolated): 0.0958
- TIAC average Total Frac IA ([2]; human male, extrapolated): 21.2881
- TIAC average adrenal ([2]; human male, extrapolated): 0.0007
- TIAC average bone ([2]; human male, extrapolated): 3.1852
- TIAC average heart content ([2]; human male, extrapolated): 0.1028
- TIAC average heart wall ([2]; human male, extrapolated): 0.0357
- TIAC average kidney ([2]; human male, extrapolated): 0.0664
- TIAC average liver ([2]; human male, extrapolated): 1.1865
- TIAC average lung ([2]; human male, extrapolated): 0.4477
- TIAC average pancreas ([2]; human male, extrapolated): 0.0300
- TIAC average salivary glands ([2]; human male, extrapolated): 0.0706
- TIAC average spleen ([2]; human male, extrapolated): 0.0881
- TIAC average stomach ([2]; human male, extrapolated): 0.0446
